Consider ten compounds from ChEMBL document CHEMBL1201862, “PubChem BioAssay data set” (2004).

Among the test systems are EKVX; T47D; OVCAR-4; MOLT-4; MCF7; SK-MEL-2; MDA-MB-435; OVCAR-8; ACHN; HCT-116; 786-0; SR; CAKI-1; SF-539; LOX IMVI; NCI-H522; UO-31; SK-MEL-28; M14; A498.
What all share (assay): NCI tumour cell line growth inhibition, 48 h

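These data come from cells grown in 96-well plates and exposed to compound for 48 hours at five concentrations. GI50 marks 50% less growth.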 The source made the active and inactive calls. No stated cut-off is given here; in the data, active = GI50 up to about 1.1 µM and inactive = higher.

Consider `NCCNc1ccc(NCCN)c2c1C(=O)c1c(O)ccc(O)c1C2=O`, for which the GI50 in the assay on EKVX was 0.436 µM (active); in the assay with T47D, 0.229 µM (active); with OVCAR-4, 0.207 µM (active); in the assay on MOLT-4, < 0.001 µM (active); in the assay with MCF7, 0.00731 µM (active); with SK-MEL-2 it was 0.44 µM (active). The GI50 with MDA-MB-435 is 1.15 µM (inactive); with OVCAR-8 it was 0.0158 µM (active); in the assay with ACHN, 0.00542 µM (active); in the assay on HCT-116, 0.051 µM (active); in the assay with 786-0, 0.00459 µM (active); with SR, < 0.001 µM (active). Moreover, the GI50 in the assay with CAKI-1 was 0.00711 µM (active); with SF-539, 0.0219 µM (active); in the assay with LOX IMVI, 0.007 µM (active); with NCI-H522, 0.0324 µM (active); in the assay on UO-31 it was 0.0391 µM (active); in the assay on SK-MEL-28, 1.07 µM (active). For the same compound, the figures for the GI50 with M14 and in the assay on A498 were 0.0149 µM (active) and 0.0818 µM (active), respectively.
Consider `Cc1cc(S(=O)(=O)/N=C(\NN)NCC(=O)NN)c(S)cc1Cl`, for which the GI50 in the assay on EKVX, in the assay on T47D, with OVCAR-4, with MOLT-4, in the assay with MCF7 and in the assay on SK-MEL-2 was > 10 µM (inactive) in each case. The GI50 with MDA-MB-435, in the assay on OVCAR-8, in the assay on ACHN, with HCT-116, in the assay with 786-0 and in the assay on SR was > 10 µM (inactive) each time. The GI50 in the assay with CAKI-1, in the assay on SF-539, in the assay with LOX IMVI, in the assay on NCI-H522, in the assay with SK-MEL-28 and in the assay on M14 was > 10 µM (inactive) in each case. In the assay on A498, the GI50 was > 10 µM (inactive).
`Cc1cnoc1/N=C1\C=C(O)C(=O)c2ccccc21`: the GI50 in the assay on EKVX is 29.5 µM (inactive); with T47D, 27.9 µM (inactive); in the assay on OVCAR-4, 20.4 µM (inactive); in the assay on MOLT-4, 17.4 µM (inactive); in the assay on MCF7, 4.26 µM (inactive); in the assay on SK-MEL-2, 2.82 µM (inactive). In addition, the GI50 in the assay with MDA-MB-435 is 1.31 µM (inactive); with OVCAR-8, 25.8 µM (inactive); in the assay with ACHN it was 21.8 µM (inactive); with HCT-116, 19.9 µM (inactive); in the assay with 786-0 it was 53.2 µM (inactive); in the assay on SR, 33.6 µM (inactive). In addition, the GI50 in the assay with CAKI-1 was 28.6 µM (inactive); with SF-539 it was 21.4 µM (inactive); with LOX IMVI, 5.26 µM (inactive); with NCI-H522 it was 34.5 µM (inactive); with UO-31, 10.8 µM (inactive); in the assay with SK-MEL-28, 29.9 µM (inactive). Also, the values for the GI50 with M14 and with A498 were 12.5 µM (inactive) and 29 µM (inactive), respectively.
`COC(=O)[C@]12CC[C@H]3CN(S(=O)(=O)c4ccc(C)cc4)[C@H]([C@H]31)[C@H](c1ccco1)N2S(=O)(=O)c1ccc(C)cc1`: the GI50 with EKVX was 51.1 µM (inactive); with T47D it was 14.1 µM (inactive); with OVCAR-4, 27.7 µM (inactive); in the assay with MOLT-4, 31.1 µM (inactive); in the assay with MCF7 it was 32.2 µM (inactive); in the assay on SK-MEL-2, 29.2 µM (inactive). Moreover, the GI50 in the assay with MDA-MB-435 is 22.9 µM (inactive); with OVCAR-8, 27.8 µM (inactive); in the assay on ACHN, 39.7 µM (inactive); in the assay with HCT-116, 27.2 µM (inactive); with 786-0, 59.7 µM (inactive); with SR, 38.7 µM (inactive). In addition, the GI50 in the assay on CAKI-1 was 38.1 µM (inactive); in the assay on SF-539, > 100 µM (inactive); with LOX IMVI, 34.7 µM (inactive); in the assay on NCI-H522 it was 29.9 µM (inactive); in the assay with UO-31, 29.3 µM (inactive); with SK-MEL-28 it was 51.4 µM (inactive). In addition, the GI50 in the assay with M14 is 26.8 µM (inactive); in the assay on A498 it was 53.2 µM (inactive).
With `O=C[C@@H](CO)O[C@H](C=O)n1cnc2c(=O)nc[nH]c21`, the GI50 in the assay on EKVX is 357 µM (inactive); in the assay on T47D it was 60.5 µM (inactive); in the assay with OVCAR-4 it was 399 µM (inactive); in the assay with MOLT-4, 123 µM (inactive); in the assay with MCF7 it was 91.2 µM (inactive); in the assay with SK-MEL-2, 318 µM (inactive). Besides, the GI50 with MDA-MB-435 was 243 µM (inactive); in the assay with OVCAR-8, 404 µM (inactive); with ACHN, 540 µM (inactive); in the assay on HCT-116 it was 177 µM (inactive); with 786-0 it was 607 µM (inactive); in the assay with SR, 181 µM (inactive). The GI50 with CAKI-1 was 319 µM (inactive); with SF-539, 490 µM (inactive); with LOX IMVI, 86.9 µM (inactive); in the assay with NCI-H522, 146 µM (inactive); in the assay on UO-31 it was 401 µM (inactive); in the assay with SK-MEL-28, 369 µM (inactive). In addition, the GI50 was 505 µM (inactive) in the assay with M14 and 673 µM (inactive) with A498.
`N#CC1(C#N)NC(c2cccs2)C(C#N)(C#N)NC1c1cccs1` (configuration not stated): the GI50 in the assay on EKVX is 55.8 µM (inactive); in the assay with T47D it was 51.2 µM (inactive); with OVCAR-4, 43.7 µM (inactive); in the assay with MOLT-4 it was 23.3 µM (inactive); with MCF7 it was 12.2 µM (inactive); in the assay with SK-MEL-2, 14.2 µM (inactive). The GI50 with MDA-MB-435 is 46.1 µM (inactive); in the assay with OVCAR-8 it was 54.7 µM (inactive); in the assay on ACHN, 25.4 µM (inactive); in the assay with HCT-116 it was 30.5 µM (inactive); in the assay on 786-0, 39.9 µM (inactive); in the assay with SR it was 28.2 µM (inactive). The GI50 with CAKI-1 was 58.6 µM (inactive); in the assay on SF-539, 19.9 µM (inactive); in the assay with LOX IMVI it was 19.7 µM (inactive); in the assay on NCI-H522, 23.1 µM (inactive); with UO-31, 42.6 µM (inactive); in the assay on SK-MEL-28, 29.6 µM (inactive). In addition, the GI50 is 31.3 µM (inactive) in the assay on M14 and 20.5 µM (inactive) in the assay with A498.
For `Cc1cccc2c1[nH]c1[nH]c(=O)[nH]c(=O)c12`, the GI50 in the assay with EKVX is 83.8 µM (inactive); in the assay on T47D, > 100 µM (inactive); in the assay on OVCAR-4, > 100 µM (inactive); with MOLT-4, > 100 µM (inactive); in the assay on MCF7, > 100 µM (inactive); in the assay on SK-MEL-2, > 100 µM (inactive). Moreover, the GI50 with MDA-MB-435, in the assay with OVCAR-8, in the assay on ACHN, with HCT-116, in the assay with 786-0 and in the assay with SR was > 100 µM (inactive) in each case. Besides, the GI50 with CAKI-1, with SF-539, with LOX IMVI, in the assay with NCI-H522, in the assay on UO-31 and in the assay with M14 was > 100 µM (inactive) in each case. Besides, the GI50 in the assay on A498 was > 100 µM (inactive).
As to `O/N=C1/CC2(N3CCOCC3)C3CC/C(=N\O)C2CC1(Cc1ccccc1)C3` (configuration not stated), the GI50 is > 100 µM (inactive) in the assay with EKVX; 67 µM (inactive) in the assay with T47D; > 100 µM (inactive) with OVCAR-4; > 100 µM (inactive) in the assay on MOLT-4; 66.4 µM (inactive) in the assay with MCF7; > 100 µM (inactive) in the assay on SK-MEL-2. The GI50 in the assay with MDA-MB-435 is > 100 µM (inactive); with OVCAR-8 it was > 100 µM (inactive); in the assay with ACHN it was > 100 µM (inactive); in the assay with HCT-116, 44.5 µM (inactive); in the assay with 786-0, > 100 µM (inactive); with SR, > 100 µM (inactive). For the same compound, the GI50 with CAKI-1, in the assay with SF-539, with LOX IMVI, with NCI-H522, in the assay on UO-31 and with SK-MEL-28 was > 100 µM (inactive) each time. Moreover, the GI50 with M14 and in the assay with A498 was > 100 µM (inactive) each time.
For the compound `Cc1nc2ccc(NCCN(C)C)c3c(=O)c4cc(O)ccc4n1c23`, the GI50 in the assay with T47D is 1.21 µM (inactive); with OVCAR-4, 0.63 µM (active); with MOLT-4, 0.0164 µM (active); in the assay with MCF7, 0.743 µM (active); in the assay with SK-MEL-2 it was 3.35 µM (inactive); in the assay on MDA-MB-435 it was 1.82 µM (inactive). Moreover, the GI50 with OVCAR-8 was 0.248 µM (active); in the assay with ACHN, 0.103 µM (active); in the assay with HCT-116, 0.0873 µM (active); with 786-0, 0.228 µM (active); in the assay on SR, < 0.01 µM (active); in the assay with CAKI-1, 0.25 µM (active). Also, the GI50 was 0.733 µM (active) in the assay with SF-539; 0.379 µM (active) in the assay on LOX IMVI; 0.112 µM (active) with NCI-H522; 2.49 µM (inactive) in the assay on UO-31; 3.03 µM (inactive) in the assay on SK-MEL-28; 2.67 µM (inactive) in the assay on M14. Also, in the assay with A498, the GI50 is 1.42 µM (inactive).
With `O=c1oc2cc(O)ccc2cc1-c1nc2ccccc2o1`, the GI50 was 28.5 µM (inactive) with EKVX; 1.07 µM (active) with T47D; 29.8 µM (inactive) in the assay with OVCAR-4; 24.7 µM (inactive) in the assay on MOLT-4; 32.8 µM (inactive) with MCF7; 21.9 µM (inactive) in the assay on SK-MEL-2. The GI50 in the assay on MDA-MB-435 is 28.2 µM (inactive); in the assay with OVCAR-8, 34.8 µM (inactive); in the assay with ACHN, 32.3 µM (inactive); in the assay on HCT-116, 41.6 µM (inactive); in the assay with 786-0 it was 30.5 µM (inactive); in the assay on SR, 30.9 µM (inactive). In addition, the GI50 was 44 µM (inactive) with CAKI-1; 58.2 µM (inactive) in the assay on SF-539; 44.4 µM (inactive) in the assay with LOX IMVI; 17.1 µM (inactive) in the assay with NCI-H522; 26.9 µM (inactive) in the assay with UO-31; 43.5 µM (inactive) with SK-MEL-28. In addition, the GI50 with M14 was 36.3 µM (inactive); in the assay with A498, 29.2 µM (inactive).
